Experimental data taken from patent publication US20230093099A1, “COMPOUNDS AND METHODS OF TREATING CANCERS” (CULLGEN (SHANGHAI), INC., priority 2019, published 2023).

Columns and labels:
[1] = test system: NCI-H929 cells; experiment: Cell viability assay (CellTiter-Glo) in NCI-H929 cells; type: cell-based; conditions: Homo sapiens, 72 h, NCI-H929, Multiple Myeloma, 3 days
Procedure: (§1) MV4;11, RS4;11, Kasumi-1, HEL and other cells were treated with NVP-BSK805, TG101209 or selected degraders for 3 days at indicated concentrations following a 3-fold serial dilution.
(§2) HEL, RS4;11, MV4;11, Kasumi-1 and other cells were cultured at 37° C. with 5% CO2 in RPMI 1640 or DMEM Medium supplemented with 10% fetal bovine serum. Cells were authenticated using the short tandem repeat (STR) assays. Mycoplasma test results were negative.
(§3) Cells were seeded at a density of 5000 cells per well in 96-well assay plates and treated with test compounds following a 8-point or 12-point 3-fold serial dilution. Three days later, cell viability was determined using the CellTiter-Glo assay kit according to the manufacturer's instructions. The dose-response curves were determined and IC50 values were calculated using the GraphPad Prism software following a nonlinear regression (least squares fit) method.

[2] = test system: CCRF-CEM cells; experiment: Cell viability assay (CellTiter-Glo) in CCRF-CEM cells; type: cell-based; conditions: Homo sapiens, 72 h, T-ALL, 3 days
Procedure: as §1, §2, §3

[3] = test system: KM12 cells; experiment: Cell viability assay (CellTiter-Glo) in KM12 cells; type: cell-based; conditions: Homo sapiens, 72 h, KM12, colorectal carcinoma, 3 days
Procedure: as §1, §2, §3

[4] = molecular target: T1, JAK1 (Homo sapiens, UniProt P23458); experiment: Immunoblot of JAK1 protein level in RS4;11 cells; type: cell-based; conditions: 24 hours; for JAK1 protein level: immunoblot (FIG. 2)
T1 construct: immunoblot of JAK1/3 proteins expressed in RS4;11 cells; endogenous in cells; host or cells: RS4;11 cells
T1 sequence (P23458 whole entry): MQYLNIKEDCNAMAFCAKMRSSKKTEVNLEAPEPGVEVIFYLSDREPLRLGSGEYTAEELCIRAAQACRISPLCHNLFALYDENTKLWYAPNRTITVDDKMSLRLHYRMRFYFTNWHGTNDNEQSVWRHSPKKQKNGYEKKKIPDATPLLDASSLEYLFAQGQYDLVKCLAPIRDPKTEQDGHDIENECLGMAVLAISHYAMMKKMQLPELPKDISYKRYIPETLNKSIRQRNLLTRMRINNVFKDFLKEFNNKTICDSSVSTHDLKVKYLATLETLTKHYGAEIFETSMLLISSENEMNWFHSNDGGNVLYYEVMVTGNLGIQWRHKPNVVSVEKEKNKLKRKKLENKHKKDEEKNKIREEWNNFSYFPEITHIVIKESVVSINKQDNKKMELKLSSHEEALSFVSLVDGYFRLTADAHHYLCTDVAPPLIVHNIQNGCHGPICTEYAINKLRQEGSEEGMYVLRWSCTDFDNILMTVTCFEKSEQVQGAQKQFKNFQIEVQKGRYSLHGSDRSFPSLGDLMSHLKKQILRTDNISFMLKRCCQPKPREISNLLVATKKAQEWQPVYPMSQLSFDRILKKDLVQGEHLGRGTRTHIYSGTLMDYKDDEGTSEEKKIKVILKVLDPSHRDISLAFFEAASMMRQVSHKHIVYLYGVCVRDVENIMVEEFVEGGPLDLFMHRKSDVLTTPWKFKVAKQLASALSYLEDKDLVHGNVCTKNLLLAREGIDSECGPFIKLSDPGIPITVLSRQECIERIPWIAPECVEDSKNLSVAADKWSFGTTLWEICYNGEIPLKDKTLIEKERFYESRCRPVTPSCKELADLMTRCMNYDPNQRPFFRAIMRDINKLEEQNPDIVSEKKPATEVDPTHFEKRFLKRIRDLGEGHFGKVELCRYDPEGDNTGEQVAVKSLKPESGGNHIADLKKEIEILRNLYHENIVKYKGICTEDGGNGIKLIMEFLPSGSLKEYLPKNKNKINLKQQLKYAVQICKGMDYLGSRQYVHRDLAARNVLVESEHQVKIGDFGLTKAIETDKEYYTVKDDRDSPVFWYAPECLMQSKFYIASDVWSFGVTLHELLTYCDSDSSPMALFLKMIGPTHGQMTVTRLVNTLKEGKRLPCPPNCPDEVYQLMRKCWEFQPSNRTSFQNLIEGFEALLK
Procedure: RS4;11 cells were treated with compounds at indicated concentrations for 24 hours. […] The concentrations required to reduce JAK1 by 50% (DC50) were below 5 nM and 35 nM for compound JA-189 and JA213, respectively.
as §2
(§4) Rabbit anti-JAK1 antibody (3344S), anti-JAK2 antibody (3230S), anti-JAK3 antibody (8827S), anti-TYK2 antibody (14193S), anti-FLT3 antibody (3462S), anti-RET antibody (14556S), anti-phospho-STAT3 (Tyr705) antibody (9145S) and anti-phospho-STAT5 (Tyr694) antibody (4322S) were purchased from Cell Signaling Technology. Rabbit anti-GSPT1 antibody (ab126090) was purchased from Abcam. HRP-conjugated anti-α-tubulin antibody was produced in house. Media and other cell culture reagents were purchased from Thermo Fisher. The CellTiter-Glo Luminescent Assay kit was purchased from Promega.
Cultured cells were washed with cold PBS once and lysed in cold RIPA buffer supplemented with protease inhibitors and phosphatase inhibitors (Beyotime Biotechnology). The solutions were then incubated at 4° C. for 30 minutes with gentle agitation to fully lyse cells. Cell lysates were centrifuged at 13,000 rpm for 10 minutes at 4° C. and pellets were discarded. Total protein concentrations in the lysates were determined by BCA assays (Beyotime Biotechnology). Cell lysates were mixed with Laemmli loading buffer to 1× and heated at 99° C. for 5 min. Proteins were resolved on SDS-PAGE and visualized by chemiluminescence. Images were taken by a ChemiDoc MP Imaging system (Bio-Rad). Protein bands were quantitated using the accompanied software provided by Bio-Rad.

[5] = molecular target: T2, JAK3 (Homo sapiens, UniProt P52333); experiment: Immunoblot of JAK3 protein level in RS4;11 cells; type: cell-based; conditions: immunoblot (FIG. 2)
T2 construct: immunoblot of JAK1/2/3 proteins expressed in HEL cells; endogenous in cells; host or cells: HEL cells
T2 sequence (P52333 1-1124): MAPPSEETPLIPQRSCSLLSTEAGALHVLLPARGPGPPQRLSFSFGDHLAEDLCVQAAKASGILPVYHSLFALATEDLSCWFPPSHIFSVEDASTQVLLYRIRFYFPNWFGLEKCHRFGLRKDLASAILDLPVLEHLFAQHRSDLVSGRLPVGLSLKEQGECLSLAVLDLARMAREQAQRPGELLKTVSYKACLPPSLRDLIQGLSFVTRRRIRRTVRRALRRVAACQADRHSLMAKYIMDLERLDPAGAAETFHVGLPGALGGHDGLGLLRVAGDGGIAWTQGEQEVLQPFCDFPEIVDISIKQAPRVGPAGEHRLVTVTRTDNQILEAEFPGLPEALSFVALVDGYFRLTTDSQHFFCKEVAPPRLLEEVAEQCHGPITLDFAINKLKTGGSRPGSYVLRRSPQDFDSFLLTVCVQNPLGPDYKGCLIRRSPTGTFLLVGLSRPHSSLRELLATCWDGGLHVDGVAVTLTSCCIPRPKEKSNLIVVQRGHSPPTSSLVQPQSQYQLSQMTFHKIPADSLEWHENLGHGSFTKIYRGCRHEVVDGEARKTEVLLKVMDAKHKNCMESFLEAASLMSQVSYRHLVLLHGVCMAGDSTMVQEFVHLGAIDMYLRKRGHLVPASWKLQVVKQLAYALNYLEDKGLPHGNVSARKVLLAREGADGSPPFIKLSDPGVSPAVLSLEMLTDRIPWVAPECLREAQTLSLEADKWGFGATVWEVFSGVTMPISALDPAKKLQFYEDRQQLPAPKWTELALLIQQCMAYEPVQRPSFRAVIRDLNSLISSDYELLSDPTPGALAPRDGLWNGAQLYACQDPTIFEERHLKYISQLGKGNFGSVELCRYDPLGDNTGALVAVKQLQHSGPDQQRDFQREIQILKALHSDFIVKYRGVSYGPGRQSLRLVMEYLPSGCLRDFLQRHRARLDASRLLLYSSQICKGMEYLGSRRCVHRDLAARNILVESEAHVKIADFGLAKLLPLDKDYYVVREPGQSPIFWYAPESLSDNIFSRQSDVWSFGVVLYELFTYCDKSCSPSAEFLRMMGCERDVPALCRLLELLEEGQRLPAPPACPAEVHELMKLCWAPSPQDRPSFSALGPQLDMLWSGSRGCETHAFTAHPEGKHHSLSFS
Procedure: To confirm JA-189 and JA-213 are true JAK degraders, HEL cell were treated with these two compounds at various compounds concentrations.
as §2, §4
Cultured cells were washed with cold PBS once and lysed in cold RIPA buffer supplemented with protease inhibitors and phosphatase inhibitors (Beyotime Biotechnology). […] Total protein concentrations in the lysates were determined by BCA assays (Beyotime Biotechnology). […] Protein bands were quantitated using the accompanied software provided by Bio-Rad.

[6] = test system: keratinocyte HACAT cells; experiment: Cell viability of non-cancerous keratinocyte HACAT cells; type: cell-based, human; conditions: 3 days, 3-fold serial dilution (FIG. 6)
Procedure: Immortalized human lung fibroblast IMR-90 and keratinocyte HACAT cells were treated with JA-189 or JA-213 for 3 days at indicated concentrations following a 3-fold serial dilution.
as §3

[7] = test system: Pfeiffer cells; experiment: Cell viability assay (CellTiter-Glo) in Pfeiffer cells; type: cell-based; conditions: Homo sapiens, 72 h, DLBCL, 3 days
Procedure: as §1, §2, §3

[8] = test system: MOLM-13 cells; experiment: Cell viability assay (CellTiter-Glo) in MOLM-13 cells; type: cell-based; conditions: Homo sapiens, 72 h, MOLM-13, AML, 3 days
Procedure: as §1, §2, §3

SMILES	IC50 [1]	IC50 [2]	IC50 [3]	JAK1 protein level [4]	DC50 ([4]; immunoblot, read-out: concentration required to reduce JAK1 by 50% (DC50))	JAK3 protein level [5]	sensitivity of non-cancerous cells (cell viability) [6]	IC50 [7]	IC50 [8]
O=C1CCC(N2C(=O)c3ccc(NCCCCCC(=O)N4CCC(n5cc(-c6cnc7cccc(-c8cc(F)c(CN9CCOCC9)c(F)c8)c7n6)cn5)CC4)cc3C2=O)C(=O)N1 (centres unmarked) [JA-189, 5-((6-(4-(4-(8-(3,5-difluoro-4-(morpholinomethyl)phenyl)quinoxalin-2-yl)-1H-pyrazol-1-yl)piperidin-1-yl)-6-oxohexyl)amino)-2-(2,6-dioxopiperidin-3-yl)isoindoline-1,3-dione]	106 nM	3.84 nM	2370 nM	even better activity in reducing the JAK1 and JAK3 protein levels	< 5 nM	even better activity in reducing the JAK1 and JAK3 protein levels	not sensitive	320 nM	20.8 nM
CS(=O)(=O)c1ccc(-c2cccc3nc(Nc4ccc(N5CCN(CC(=O)NCCCCCCCCNc6ccc7c(c6)C(=O)N(C6CCC(=O)NC6=O)C7=O)CC5)cc4)nn23)cc1 (centres unmarked) [JA-213]	124 nM	19.1 nM	679 nM	even better activity in reducing the JAK1 and JAK3 protein levels	–	even better activity in reducing the JAK1 and JAK3 protein levels	not sensitive	266 nM	27.4 nM
